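96-well plates; 48 h exposure; 5 concentrations. Endpoints by linear interpolation between flanking doses. Not reached: highest tested concentration assigned. GI50 = concentration required for 50% inhibition of growth.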 Calls of active or inactive are those of the source. Cut-off read from the data, not from the text of the source: active = GI50 up to about 1.1 µM and inactive = higher.
Assays:
Assay in all cases: NCI tumour cell line growth inhibition, 48 h
DLD-1 = tested on: DLD-1
DMS-114 = tested on: DMS-114
HOP-18 = tested on: HOP-18
LXFL 529 = tested on: LXFL 529
SNB-78 = tested on: SNB-78
DMS-273 = tested on: DMS-273
RXF 631 = tested on: RXF 631
M19-MEL = tested on: M19-MEL
XF498 = tested on: XF498

Row | Structure (SMILES) | GI50 (DLD-1) | GI50 (DMS-114) | GI50 (HOP-18) | GI50 (LXFL 529) | GI50 (SNB-78) | GI50 (DMS-273) | GI50 (RXF 631) | GI50 (M19-MEL) | GI50 (XF498)
1 | C/C1=N\[N-]C(=O)c2ccccc2C(=O)N/N=C(\C)c2cccc1n2.O=[N+]([O-])[O-].[Zn+2] | > 100 µM (inactive) | > 100 µM (inactive) | > 100 µM (inactive) | 44.2 µM (inactive) | > 100 µM (inactive) |  |  |  | 
2 | N#CC(C(=O)/C(=N\NC(N)=O)C(C#N)c1ccccc1)c1ccccc1 (stereo not drawn) | > 100 µM (inactive) |  |  | > 100 µM (inactive) | > 100 µM (inactive) | > 100 µM (inactive) | > 100 µM (inactive) |  | 
3 | COC(=O)C1CC/C(=N/C2c3ccccc3-c3ccccc32)N1 (stereo not drawn) | > 100 µM (inactive) | 43.8 µM (inactive) | > 100 µM (inactive) | > 100 µM (inactive) | > 100 µM (inactive) | > 100 µM (inactive) | > 100 µM (inactive) | > 100 µM (inactive) | > 100 µM (inactive)
4 | O=C1c2c(O)cccc2C(C(=O)CCCC(=O)C2c3cccc(O)c3C(=O)c3c(O)cccc32)c2cccc(O)c21 | 0.388 µM (active) | 0.116 µM (active) | 0.378 µM (active) | 0.139 µM (active) | 0.213 µM (active) | 0.437 µM (active) | 0.578 µM (active) | 0.151 µM (active) | 0.0752 µM (active)
5 | NC(=O)c1cccc([N+](=O)[O-])c1 | > 100 µM (inactive) | > 100 µM (inactive) |  | > 100 µM (inactive) | > 100 µM (inactive) | > 100 µM (inactive) |  | > 100 µM (inactive) | > 100 µM (inactive)
6 | COc1ccc2c(c1)CCC(OS(=O)(=O)CC13CCC(CC1=O)C3(C)C)C2=O (stereo not drawn) | 31.3 µM (inactive) | 27.5 µM (inactive) | 30.1 µM (inactive) | 29.8 µM (inactive) |  | 26.4 µM (inactive) |  | 34.2 µM (inactive) | 31.2 µM (inactive)
7 | COc1cc2cc3c4c(cc(OC)c(OC)c4c2cc1OC)CCN3C(=O)OCCBr | 45.5 µM (inactive) |  |  |  | > 100 µM (inactive) | 50.2 µM (inactive) |  | 81.8 µM (inactive) | > 100 µM (inactive)
8 | CC1=C2C(=O)C(C)(C)C=C2C(=O)[C@](C)(O)C12CC2 [DEHYDROILLUDIN M] | > 0.791 µM (active) |  | > 1 µM (active) | 0.698 µM (active) | 0.522 µM (active) | 0.282 µM (active) |  | > 0.953 µM (active) | 0.664 µM (active)
9 | CCN(CC)CCNc1ccc2nnn3c4ccc(C)cc4c(=O)c1c23 | 6.08 µM (inactive) | 9.12 µM (inactive) |  | 12 µM (inactive) | 10.9 µM (inactive) |  | 5.28 µM (inactive) | 14.6 µM (inactive) | 
10 | O=S(=O)(c1ccccc1)C1CN2OC1(S(=O)(=O)c1ccccc1)CC21CCCCC1 (stereo not drawn) | > 100 µM (inactive) | > 100 µM (inactive) |  | > 100 µM (inactive) |  | 82.6 µM (inactive) | > 100 µM (inactive) | > 100 µM (inactive) | 32.3 µM (inactive)
11 | COc1ccc2c(c1)C1C(CO2)C(c2ccccc2)=NN1c1ccccc1 (stereo not drawn) | > 100 µM (inactive) | > 100 µM (inactive) | > 100 µM (inactive) | > 100 µM (inactive) | > 100 µM (inactive) | > 100 µM (inactive) | > 100 µM (inactive) | > 100 µM (inactive) | > 100 µM (inactive)
12 | O=C1C2C(C(=O)N1c1ccccc1)C1(Br)c3ccccc3C2(Br)C2C(=O)N(c3ccccc3)C(=O)C21 (stereo not drawn) | 16.8 µM (inactive) | > 31.6 µM (inactive) | 18.1 µM (inactive) | 7.62 µM (inactive) | 12.5 µM (inactive) | 11.7 µM (inactive) | > 100 µM (inactive) | > 31.6 µM (inactive) | 29.2 µM (inactive)
13 | Cc1[nH]c(=O)nc(N/N=C/c2ccc(O)cc2)c1C(=O)Nc1ccc(Cl)cc1 | > 100 µM (inactive) | > 100 µM (inactive) | > 100 µM (inactive) | > 100 µM (inactive) | > 100 µM (inactive) | > 100 µM (inactive) | > 100 µM (inactive) | > 100 µM (inactive) | 
14 | COc1cc2c(cc1OC)C(CC(=O)NN=C(C)C)NCC2 (stereo not drawn) | > 100 µM (inactive) | > 100 µM (inactive) | > 100 µM (inactive) | > 100 µM (inactive) | > 100 µM (inactive) | > 100 µM (inactive) |  | > 100 µM (inactive) | 96.6 µM (inactive)
15 | CC(C)(C)C1CCC(CI)(N=[N+]=[N-])CC1 (stereo not drawn) | > 100 µM (inactive) | > 100 µM (inactive) | > 100 µM (inactive) | > 100 µM (inactive) | > 100 µM (inactive) | > 100 µM (inactive) |  | 99.1 µM (inactive) | 42.5 µM (inactive)
16 | CNC(N)NC | > 100 µM (inactive) | > 100 µM (inactive) | > 100 µM (inactive) | > 100 µM (inactive) | > 100 µM (inactive) | > 100 µM (inactive) |  | > 100 µM (inactive) | > 100 µM (inactive)
17 | COc1ccccc1NC(=O)CC(=O)n1nc(C)c(/N=N/c2ccccc2F)c1C | > 100 µM (inactive) | > 100 µM (inactive) | > 100 µM (inactive) | > 100 µM (inactive) | 17.3 µM (inactive) | > 100 µM (inactive) |  | > 100 µM (inactive) | 40 µM (inactive)
18 | O=C1OC(c2ccc(Cl)c3ccccc23)c2ccccc21 (stereo not drawn) |  | 71.3 µM (inactive) | > 100 µM (inactive) |  | > 100 µM (inactive) |  | > 100 µM (inactive) | > 100 µM (inactive) | > 100 µM (inactive)
19 | COc1cc2c(cc1OC)C(O)[C@H](Br)C(C)(C)O2 (stereo partly drawn) | > 100 µM (inactive) | > 100 µM (inactive) | > 100 µM (inactive) | > 100 µM (inactive) |  | > 100 µM (inactive) |  | > 100 µM (inactive) | > 100 µM (inactive)
20 | CSc1ccc2c(cc1=O)C(NC(=O)c1ccccc1)CCc1cc(O)c(O)c(O)c1-2 (stereo not drawn) | 16.7 µM (inactive) | 26.2 µM (inactive) | > 100 µM (inactive) | 23.4 µM (inactive) | 6.79 µM (inactive) | 26.9 µM (inactive) |  | 4.94 µM (inactive) | 
21 | c1ccc(CN(Cn2cccn2)Cn2cccn2)nc1 | 87.3 µM (inactive) | 78.7 µM (inactive) |  | > 100 µM (inactive) | > 100 µM (inactive) | 61.7 µM (inactive) | > 100 µM (inactive) | > 100 µM (inactive) | > 100 µM (inactive)
22 | CCCCCCCCCC1CC(=O)OC23CCCC(=O)C12O3 (stereo not drawn) | 98.6 µM (inactive) | 71.6 µM (inactive) | 62.5 µM (inactive) | > 100 µM (inactive) | 60.8 µM (inactive) | > 100 µM (inactive) |  | > 100 µM (inactive) | > 100 µM (inactive)
23 | CC(C)N(C(C)C)P(OCCC#N)OC1CC(n2cnc3c(=O)[nH]cnc32)OC1COC(=O)NCCCCCCNC(=O)OC(C)(C)c1ccc(-c2ccccc2)cc1 (stereo not drawn) | 43.3 µM (inactive) | 21.8 µM (inactive) | 92 µM (inactive) | 17.5 µM (inactive) | 30.5 µM (inactive) | 17.4 µM (inactive) |  | 21.5 µM (inactive) | 

Source: ChEMBL document CHEMBL1201862, “PubChem BioAssay data set” (2004)
